Assay results taken from publication PMC11506537, “An 11-mer Synthetic Peptide Suppressing Aggregation of Aβ25-35 and Resolving Its Aggregated Form Improves Test Performance in an Aβ25-35-Induced Alzheimer’s Mouse Model” (Biomolecules, 2024).
Where a SMILES comes first, the peptide text is derived from it.

Tests used:
Solubility = type: physicochemical; conditions: stated without data
Aβ25-35 = molecular target: T1, Aβ25-35 (Homo sapiens, UniProt P05067); assay: ThT assay, inhibition of Aβ25-35 aggregation; type: biochemical; conditions: for IC50: 100 µM Aβ25-35, PBS, 37 °C, 4 h, ThT fluorescence, n = 3
T1 construct: made in house; host or cells: chemical solid-phase (Fmoc) peptide synthesis; no expression host
Method: To perform the ThT assay to evaluate aggregation, Aβ25-35 (final concentration of 100 μM) was incubated with ThT solution (final concentration of 10 μM) in Phosphate-buffered saline (PBS), pH 7.4. The ThT signal was monitored by measuring the fluorescence emission at 480 nm for 10 s when excited at 444 nm using Cytation 5 (BioTek, Vermont, WI, USA) at 37 °C [41]. Aggregated Aβ25-35 (100 μM) peptides were prepared by incubating for 18 h in PBS.
We also evaluated inhibitory effects in a time-dependent manner. The fluorescence intensity of the reaction mixture of peptide and Aβ25-35 was traced for 120 min at 15 min intervals.
Therefore, we evaluated the concentration-dependent aggregation inhibitory effect of YS-RD11 and YS-RE16 on Aβ25-35. Various concentrations of the peptides (YS-RD11; 1 to 100 µM, YS-RE16; 0.01 to 10 µM) were incubated independently with 100 µM Aβ25-35 (final con. 100 µM) in PBS at 37 °C. The fluorescence intensity of reaction mixtures was measured after 4 h.

A549 cells = assay: A549 cell viability, WST-8 assay; conditions: 0.1 mg/mL peptide, 72 h, WST-8, n = 4; compared with FLAG peptide
Method: The human lung cancer cell line, A549, was obtained from the Riken Cell Bank (Ibaraki, Japan). The cells were cultured as described previously [30, 43]. Briefly, A549 cells (4 × 10^3 cells/well) were seeded into 96-well plates and maintained in Dulbecco’s modified Eagle’s medium (DMEM) supplemented with 10% fetal bovine serum, 100 units/mL penicillin, and 100 μg/mL streptomycin at 37 °C in a humidified atmosphere with 5% CO2. […] After incubation for 72 h, the medium was exchanged for 110 μL of medium containing 10 μL WST-8 (water-soluble tetrazolium salt WST-8) reagent and 100 μL DMEM). The cells were further incubated for 1 h, the absorbance was determined at 450 nm with a reference wavelength of 620 nm using a SPECTRA max Plus384 microplate reader (Molecular Devices, LCC, San Jose, CA, USA).

aggregated Aβ25-35 = assay: SEM, resolution of aggregated Aβ25-35; type: biochemical
Method: Aβ25-35 (100 μM) was incubated with YS-RD11 or YS-RE16 in PBS at 37 °C. The reaction mixture was centrifuged at 9000 rpm for 5 min. The supernatant was removed, 200 μL of MilliQ water was added and mixed, and the solution was centrifuged at 9000 rpm for 5 min to obtain a sample for SEM [42]. Aggregated Aβ25-35 (100 μM) peptides were prepared by incubating for 18 h in PBS.
Next, the resolving effect of YS-RD11, YS-RE16, and YS-DE6 on aggregated Aβ25-35 was assessed by observing its shape using SEM.

u-proMMP-7 = conditions: cited from earlier work
From the text: Chaperones are potential drug candidates for folding diseases, such as AD and Parkinson’s disease, which are caused by protein aggregation. In recent years, research has focused on low-molecular-weight chemical chaperones rather than on chaperone proteins. Biochemical methods are used to screen for chemical chaperones with the aim of developing therapeutic agents for lysosomal diseases, which are ...

Aβ42 = tested on: Aβ42; parameters: method as in 2 sources, ref 28 = [28]; PMID 30930080; doi:10.1016/j.peptides.2019.03.005; 28. Nakamura R. Konishi M. Taniguchi M. Hatakawa Y. Akizawa T. The discovery of shorter synthetic proteolytic peptides derived from Tob1 protein Peptides 2019 116 71 77 10.1016/j.peptides.2019.03.005 ||| ref 29, 30, 31 = [29]; PMID 31687556; doi:10.1016/j.heliyon.2019.e02454; 29. Hatakawa Y. Nakamura R. Konishi M. Sakane T. Saito M. Akizawa T. Catalytides derived from the Box A region in the ANA/BTG3 protein cleave amyloid-β fragment peptide Heliyon 2019 5 e02454 10.1016/j || [30]; PMID 33816760; doi:10.1002/trc2.12146; 30. Hatakawa Y. Nakamura R. Konishi M. Sakane T. Tanaka A. Matsuda A. Saito M. Akizawa T. Amyloid beta cleavage by ANA-TA9, a synthetic peptide from the ANA/BTG3 Box A region Alzheimers Dement. Transl || [31]; 31. Nakamura R. Konishi M. Hatakawa Y. Saito M. Akizawa T. The Novel Catalytic Peptide, A Synthetic Nona-Peptide (JAL-TA9) Derived from Tob1 Protein, Digests the Amyloid-β Peptide J. R. Sci. 2019 1 30; conditions: cited from earlier work
[1] = parameters: method as in PMID 30930080; conditions: structure–activity relationship of JAL-AK22; cited from earlier work
[2] = in vivo; cited from earlier work
patients with AD = conditions: cited from earlier work
From the text: Alzheimer’s disease (AD) is the most common age-related neurodegenerative disorder worldwide. Amyloid-β (Aβ) 42, which is produced by the cleavage of amyloid precursor protein (APP) by β- or γ-secretases, is considered to cause AD [1, 2, 3]. […] Thus, the current main strategy is to develop Aβ antibodies and vaccines aimed at inhibiting Aβ aggregation. […] Lecanemab, the latest Aβ ant ...

CC(C)C[C@H](NC(=O)[C@H](Cc1c[nH]cn1)NC(=O)[C@@H](NC(=O)[C@H](CC(C)C)NC(=O)[C@H](Cc1ccc(O)cc1)NC(=O)[C@@H](NC(=O)[C@H](CC(C)C)NC(=O)[C@@H](NC(=O)[C@H](CCC(=O)O)NC(=O)[C@@H](N)CCCNC(=N)N)[C@@H](C)O)C(C)C)[C@@H](C)O)C(=O)N[C@@H](CC(=O)O)C(=O)O [YS-RD11] (H-RETLVYLTHLD-OH)
solubility (Solubility): high solubility | IC50 (Aβ25-35): ~1500 nM | effect on growth of A549 cells (A549 cells): did not show a significant inhibitory effect on the growth of A549 cells

CC(C)C[C@H](NC(=O)[C@H](Cc1c[nH]cn1)NC(=O)[C@@H](NC(=O)[C@H](CC(C)C)NC(=O)[C@H](Cc1ccc(O)cc1)NC(=O)[C@@H](NC(=O)[C@H](CC(C)C)NC(=O)[C@@H](NC(=O)[C@H](CCC(=O)O)NC(=O)[C@@H](N)CCCNC(=N)N)[C@@H](C)O)C(C)C)[C@@H](C)O)C(=O)N[C@@H](CC(=O)O)C(=O)N[C@@H](Cc1ccc(O)cc1)C(=O)N[C@@H](CC(=O)O)C(=O)N[C@@H](CC(=O)O)C(=O)N[C@H](C(=O)N[C@@H](CCC(=O)O)C(=O)O)[C@@H](C)O [YS-RE16] (H-RETLVYLTHLDYDDTE-OH)
IC50 (Aβ25-35): ~500 nM | effect on growth of A549 cells (A549 cells): did not show a significant inhibitory effect on the growth of A549 cells

DYDDTE [YS-DE6, peptide derived from YS-RE20, DYDDTE]
amyloid fibrils observed by SEM, peptide 100 µM (aggregated Aβ25-35; 100 µM peptide + 100 µM aggregated Aβ25-35 (18 h), PBS): a cluster of amyloid fibrils | effect on Aβ25-35 aggregation, negative control (aggregated Aβ25-35; YS-DE6 as negative control): did not show any effect against Aβ25-35 aggregation

KWEGHWYPEKPYKGSGFRCIHI [JAL-AK22, reference compound]
activation of proMMP-7 (u-proMMP-7): activates proMMP-7 by cleaving the pro-domain of MMP-7

YKGSGFRMI [JAL-TA9]
cleavage of Aβ42 (Aβ42): cleaved Aβ42 with serine protease-like activity | cleavage of soluble (a-Aβ42) and solid insoluble (s-Aβ42) Aβ42 (Aβ42): cleaved both the authentic soluble form Aβ42 (a-Aβ42) and the solid insoluble form Aβ42 (s-Aβ42) in the central region | auto-proteolytic activity [1]: strongest auto-proteolytic activity

YKNMRETLVYLTHLD [YS-YD15]
aggregation inhibitory activity against Aβ25-35 (conclusion in words) (Aβ25-35; ThT, 100 μM peptides, PBS): weak inhibitory activity

YKNMRETLVYLTHLDYDDTE [YS-YE20]
activation of u-proMMP7 (u-proMMP-7; screening of 3000 types of peptides, no reference given): activates u-proMMP7 by acting as a chaperone rather than Catalytide

oxytocin: the peptide oxytocin
drug delivery to the brain via nasal application [2]: direct and efficient drug delivery

B1: lecanemab: latest Aβ antibody drug approved by the U.S. Food and Drug Administration (antibody, chains of the INN, looked up, V domains shown)
VH: EVQLVESGGGLVQPGGSLRLSCSASGFTFSSFGMHWVRQAPGKGLEWVAYISSGSSTIYYGDTVKGRFTISRDNAKNSLFLQMSSLRAEDTAVYYCAREGGYYYGRSYYTMDYWGQGTTVTVSS
VL: DVVMTQSPLSLPVTPGAPASISCRSSQSIVHSNGNTYLEWYLQKPGQSPKLLIYKVSNRFSGVPDRFSGSGSGTDFTLRISRVEAEDVGIYYCFQGSHVPPTFGPGTKLEIK
side effects (patients with AD): cerebral edema and cerebral microhemorrhage | clinical effectiveness by AD stage (patients with AD; patients with AD, no reference at this sentence): potentially effective in the early stages of AD but is less effective in the later stages
